Reference: PubChem BioAssay AID1745844 (Carcinogenic Potency Database (CPDB), 2022)
Several values for one entry are separate records, joined by “and”; a condition that tells them apart may be missing. Equal entries are not always repeated. Activity calls are given as the source filed them. No rule for the calls is given here.

System: rodent lifetime carcinogenesis bioassay, tumor incidence TD50
Assay: carcinogenic potency in animals, long-term in vivo studies, CPDB compilation (AID 1745844)

SMILES: O=C1OC(c2ccc(O)cc2)(c2ccc(O)cc2)c2ccccc21
- TD50 (mouse, strain B6C3F1, females, in feed, site: all sites + ovary, lesion: histiocytic sarcoma + lymphoma malignant, thymic origin + malignant lymphoma + sex-cord stromal tumor, benign, bilateral + sex-c, dosed 105 weeks, study length 105 weeks): 508 mg/kg/day
- TD50 (mouse, strain B6C3F1, females, in feed, site: all sites, lesion: histiocytic sarcoma, dosed 105 weeks, study length 105 weeks): 4080 mg/kg/day
- TD50 (mouse, strain B6C3F1, females, in feed, site: all sites, lesion: lymphoma malignant, thymic origin, dosed 105 weeks, study length 105 weeks): 1610 mg/kg/day
- TD50 (mouse, strain B6C3F1, females, in feed, site: all sites, lesion: malignant lymphoma, dosed 105 weeks, study length 105 weeks): 748 mg/kg/day
- TD50 (mouse, strain B6C3F1, females, in feed, site: any site (literature study), lesion: several types, types named in the paper, dosed 105 weeks, study length 105 weeks): 1740 mg/kg/day
- TD50 (mouse, strain B6C3F1, females, in feed, site: lung, lesion: alveolar/bronchiolar adenoma + alveolar/bronchiolar carcinoma, dosed 105 weeks, study length 105 weeks): 9190 mg/kg/day
- TD50 (mouse, strain B6C3F1, females, in feed, site: ovary, lesion: sex-cord stromal tumor, benign, bilateral + sex-cord stromal tumor, benign, dosed 105 weeks, study length 105 weeks): 1900 mg/kg/day
- TD50 (mouse, strain B6C3F1, males, in feed, site: all sites, lesion: histiocytic sarcoma + lymphoma malignant, thymic origin, dosed 104 weeks, study length 104 weeks): 1150 mg/kg/day
- TD50 (mouse, strain B6C3F1, males, in feed, site: all sites, lesion: histiocytic sarcoma, dosed 104 weeks, study length 104 weeks): 2680 mg/kg/day
- TD50 (mouse, strain B6C3F1, males, in feed, site: all sites, lesion: lymphoma malignant, thymic origin, dosed 104 weeks, study length 104 weeks): 2740 mg/kg/day
- TD50 (mouse, strain B6C3F1, males, in feed, site: any site (literature study), lesion: several types, types named in the paper, dosed 104 weeks, study length 104 weeks): 32200 mg/kg/day
- TD50 (mouse, strain B6C3F1, males, in feed, site: lung, lesion: alveolar/bronchiolar adenoma + alveolar/bronchiolar carcinoma, dosed 104 weeks, study length 104 weeks): 8060 mg/kg/day
- TD50 (mouse, strain B6C3F1, males, in feed, site: spleen, lesion: hemangiosarcoma, dosed 104 weeks, study length 104 weeks): 1640 mg/kg/day
- TD50 (mouse, strain BALB/c, males, in feed, site: liver, lesion: hepatoma, dosed 60 weeks, study length 104 weeks): 20800 mg/kg/day (inactive)
- carcinogen call (mouse, strain BALB/c, males, in feed, site: lung, lesion: one or several types, types not named, dosed 60 weeks, study length 104 weeks): negative (inactive)
- carcinogen call (mouse, strain C57BL/6J, males, by gavage, site: liver, lesion: hepatoma, dosed 69 weeks, study length 104 weeks): negative (inactive)
- carcinogen call (mouse, strain C57BL/6J, males, by gavage, site: lung, lesion: one or several types, types not named, dosed 69 weeks, study length 104 weeks): negative (inactive)
- TD50 (rat, strain Fischer 344, females, in feed, site: adrenal medulla, lesion: pheochromocytoma benign, bilateral + pheochromocytoma, benign, dosed 105 weeks, study length 105 weeks): 4160 mg/kg/day
- TD50 (rat, strain Fischer 344, females, in feed, site: adrenal medulla, lesion: pheochromocytoma benign, bilateral + pheochromocytoma, malignant + pheochromocytoma, benign, dosed 105 weeks, study length 105 weeks): 3530 mg/kg/day
- TD50 (rat, strain Fischer 344, males, in feed, site: adrenal medulla + kidney, lesion: pheochromocytoma benign, bilateral + pheochromocytoma, benign + tubule adenoma + tubule carcinoma, dosed 104 weeks, study length 104 weeks): 250 mg/kg/day
- TD50 (rat, strain Fischer 344, males, in feed, site: adrenal medulla, lesion: pheochromocytoma benign, bilateral + pheochromocytoma, benign, dosed 104 weeks, study length 104 weeks): 517 mg/kg/day
- TD50 (rat, strain Fischer 344, males, in feed, site: adrenal medulla, lesion: pheochromocytoma benign, bilateral + pheochromocytoma, malignant + pheochromocytoma malignant, bilateral + pheochromocytoma, b, dosed 104 weeks, study length 104 weeks): 533 mg/kg/day
- TD50 (rat, strain Fischer 344, males, in feed, site: any site (literature study), lesion: several types, types named in the paper, dosed 104 weeks, study length 104 weeks): 3540 mg/kg/day
- TD50 (rat, strain Fischer 344, males, in feed, site: kidney, lesion: tubule adenoma + tubule carcinoma, dosed 104 weeks, study length 104 weeks): 3220 mg/kg/day and 975 mg/kg/day
- TD50 (rat, strain Fischer 344, males, in feed, site: kidney, lesion: tubule adenoma, dosed 104 weeks, study length 104 weeks): 4050 mg/kg/day and 1040 mg/kg/day
- TD50 (rat, strain Fischer 344, males, in feed, site: liver, lesion: hepatocellular adenoma + hepatoblastoma + hepatocellular carcinoma, dosed 104 weeks, study length 104 weeks): 118000 mg/kg/day
- TD50 (rat, strain Fischer 344, males, in feed, site: thyroid gland, lesion: follicular-cell adenoma, bilateral + follicular-cell adenoma, dosed 104 weeks, study length 104 weeks): 6990 mg/kg/day
